Source: patent publication US8431565B2 (priority 2007, dated 2013)

Target: human CB1 receptor (hCB1) (Homo sapiens, UniProt P21554)
Assay type: cell-based

Sequence of human CB1 receptor (hCB1) (P21554 whole entry): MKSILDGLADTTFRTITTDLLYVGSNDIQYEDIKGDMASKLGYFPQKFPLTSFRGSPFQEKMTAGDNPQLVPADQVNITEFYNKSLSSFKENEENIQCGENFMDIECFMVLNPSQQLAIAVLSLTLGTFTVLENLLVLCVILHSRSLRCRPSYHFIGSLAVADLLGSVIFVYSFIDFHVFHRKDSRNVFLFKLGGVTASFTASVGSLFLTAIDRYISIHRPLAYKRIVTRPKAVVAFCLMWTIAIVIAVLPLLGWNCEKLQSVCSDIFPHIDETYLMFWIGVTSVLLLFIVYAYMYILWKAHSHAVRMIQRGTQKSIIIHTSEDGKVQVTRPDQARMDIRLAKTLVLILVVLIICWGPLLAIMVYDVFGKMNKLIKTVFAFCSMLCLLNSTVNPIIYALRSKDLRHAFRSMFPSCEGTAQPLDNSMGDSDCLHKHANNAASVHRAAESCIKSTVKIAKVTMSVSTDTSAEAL

Q: Which EC50 does the source give for `CNC(=O)[C@@H](NC(=O)c1nc(C2CCN(C(=O)c3ccccc3)CC2)n2c1CN(C)CCC2)C(C)(C)C` [Compound 726, (S)-3-(1-benzoylpiperidin-4-yl)-N-(3,3-dimethyl-1-(methylamino)-1-oxobutan-2-yl)-8-methyl-6,7,8,9-tetrahydro-5H-imidazo[1,5-a][1,4]diazepine-1-carboxamide] here?
A: > 10 µM

Q: `CNC(=O)[C@@H](NC(=O)c1nc(C2CCN(S(=O)(=O)c3ccccc3)CC2)n2c1CN(C)CCC2)C(C)(C)C` [Compound 727, (S)-N-(3,3-dimethyl-1-(methylamino)-1-oxobutan-2-yl)-8-methyl-3-(1-(phenylsulfonyl)piperidin-4-yl)-6,7,8,9-tetrahydro-5H-imidazo[1,5-a][1,4]diazepine-1-carboxamide] was tested. Which EC50 did it give?
A: > 10 µM

Q: For `CNC(=O)[C@@H](NC(=O)c1nc(C2CCN(C(=O)C(C)C)CC2)n2c1CN(C)CCC2)C(C)(C)C` [Compound 728, (S)-N-(3,3-dimethyl-1-(methylamino)-1-oxobutan-2-yl)-3-(1-isobutyrylpiperidin-4-yl)-8-methyl-6,7,8,9-tetrahydro-5H-imidazo[1,5-a][1,4]diazepine-1-carboxamide], which EC50 is on record?
A: > 10 µM

Q: With `CC(C)(C)[C@H](NC(=O)c1nc(-c2ccccc2)n2c1CNCC2)C(=O)NCCF` [Compound 731, (S)-N-(1-(2-fluoroethylamino)-3,3-dimethyl-1-oxobutan-2-yl)-3-phenyl-5,6,7,8-tetrahydroimidazo[1,5-a]pyrazine-1-carboxamide] as the molecule, how does the EC50 read?
A: > 10 µM

Q: For `CC(C)(C)[C@H](NC(=O)c1nc(-c2ccccc2)n2c1CNCC2)C(=O)N1CCOCC1` [Compound 733, (S)-N-(3,3-dimethyl-1-morpholino-1-oxobutan-2-yl)-3-phenyl-5,6,7,8-tetrahydroimidazo[1,5-a]pyrazine-1-carboxamide], which EC50 is on record?
A: > 10 µM

Q: `CN1CCCn2c(-c3cc(Cl)ccc3F)nc(C(=O)N[C@H](C(=O)N[C@H]3CN4CCC3CC4)C(C)(C)C)c2C1` [Compound 744, 3-(5-chloro-2-fluorophenyl)-N-((S)-3,3-dimethyl-1-oxo-1-((R)-quinuclidin-3-ylamino)butan-2-yl)-8-methyl-6,7,8,9-tetrahydro-5H-imidazo[1,5-a][1,4]diazepine-1-carboxamide] was tested. Which EC50 did it give?
A: > 10 µM

Q: How did the EC50 turn out when `CNC(=O)[C@@H]1CCN(C(=O)c2nc(-c3cc(F)c(F)cc3F)n3c2CN(C)CCC3)C1` [Compound 758, (R)-N-methyl-1-(8-methyl-3-(2,4,5-trifluorophenyl)-6,7,8,9-tetrahydro-5H-imidazo[1,5-a][1,4]diazepine-1-carbonyl)pyrrolidine-3-carboxamide] was run?
A: > 10 µM

Q: How did the EC50 turn out when `CN1CCCn2c(-c3cc(F)c(F)cc3F)nc(C(=O)NCC3CCOCC3)c2C1` [Compound 764, 8-methyl-N-((tetrahydro-2H-pyran-4-yl)methyl)-3-(2,4,5-trifluorophenyl)-6,7,8,9-tetrahydro-5H-imidazo[1,5-a][1,4]diazepine-1-carboxamide] was run?
A: > 10 µM

Q: How did the EC50 turn out when `CN1CCCn2c(-c3cc(F)c(F)cc3F)nc(C(=O)NC(C)(C)CO)c2C1` [Compound 765, N-(1-hydroxy-2-methylpropan-2-yl)-8-methyl-3-(2,4,5-trifluorophenyl)-6,7,8,9-tetrahydro-5H-imidazo[1,5-a][1,4]diazepine-1-carboxamide] was run?
A: > 10 µM

Q: For `CN1CCCn2c(-c3cc(Cl)ccc3F)nc(C(=O)N[C@H](CN)C(C)(C)C)c2C1` [Compound 768, (S)-N-(1-amino-3,3-dimethylbutan-2-yl)-3-(5-chloro-2-fluorophenyl)-8-methyl-6,7,8,9-tetrahydro-5H-imidazol[1,5-a][1,4]diazepine-1-carboxamide], which EC50 is on record?
A: > 10 µM

Q: `CN1CCCn2c(-c3cc(Cl)ccc3F)nc(C(=O)N[C@H](CN3CCCC3=O)C(C)(C)C)c2C1` [Compound 769, (S)-3-(5-chloro-2-fluorophenyl)-N-(3,3-dimethyl-1-(2-oxopyrrolidin-1-yl)butan-2-yl)-8-methyl-6,7,8,9-tetrahydro-5H-imidazo[1,5-a][1,4]diazepine-1-carboxamide] was tested. Which EC50 did it give?
A: > 10 µM

Q: Which EC50 does the source give for `CC(=O)NC[C@@H](NC(=O)c1nc(-c2cc(Cl)ccc2F)n2c1CN(C)CCC2)C(C)(C)C` [Compound 770, (S)-N-(1-acetamido-3,3-dimethylbutan-2-yl)-3-(5-chloro-2-fluorophenyl)-8-methyl-6,7,8,9-tetrahydro-5H-imidazo[1,5-a][1,4]diazepine-1-carboxamide] here?
A: > 10 µM

Q: How did the EC50 turn out when `CN1CCCn2c(-c3cc(Cl)ccc3F)nc(C(=O)N[C@H](CNS(C)(=O)=O)C(C)(C)C)c2C1` [Compound 771, (S)-3-(5-chloro-2-fluorophenyl)-N-(3,3-dimethyl-1-(methylsulfonamido)butan-2-yl)-8-methyl-6,7,8,9-tetrahydro-5H-imidazo[1,5-a][1,4]diazepine-1-carboxamide] was run?
A: > 10 µM

Q: How did the EC50 turn out when `CNC(=O)[C@@H](NC(=O)c1nc(C2CCN(S(=O)(=O)C(C)C)CC2)n2c1CN(C)CCC2)C(C)(C)C` [Compound 775, (S)-N-(3,3-dimethyl-1-(methylamino)-1-oxobutan-2-yl)-3-(1-(isopropylsulfonyl)piperidin-4-yl)-8-methyl-6,7,8,9-tetrahydro-5H-imidazo[1,5-a][1,4]diazepine-1-carboxamide] was run?
A: > 10 µM

Q: Which EC50 does the source give for `CNC(=O)[C@@H](NC(=O)c1nc(-c2cnn(S(=O)(=O)c3ccccc3)c2)n2c1CN(C)CCC2)C(C)(C)C` [Compound 776, (S)-N-(3,3-dimethyl-1-(methylamino)-1-oxobutan-2-yl)-8-methyl-3-(1-(phenylsulfonyl)-1H-pyrazol-4-yl)-6,7,8,9-tetrahydro-5H-imidazo[1,5-a][1,4]diazepine-1-carboxamide] here?
A: > 10 µM

Q: With `CN1CCCn2c(-c3cc(F)c(F)cc3F)nc(C(=O)N3CCC4(CCNC4=O)CC3)c2C1` [Compound 787, 8-(8-methyl-3-(2,4,5-trifluorophenyl)-6,7,8,9-tetrahydro-5H-imidazo[1,5-a][1,4]diazepine-1-carbonyl)-2,8-diazaspiro[4.5]decan-1-one] as the molecule, how does the EC50 read?
A: > 10 µM

Q: How did the EC50 turn out when `CN1CCCn2c(-c3cc(F)c(F)cc3F)nc(C(=O)N3CCC4(CCN(C)C4=O)CC3)c2C1` [Compound 788, 2-methyl-8-(8-methyl-3-(2,4,5-trifluorophenyl)-6,7,8,9-tetrahydro-5H-imidazo[1,5-a][1,4]diazepine-1-carbonyl)-2,8-diazaspiro[4.5]decan-1-one] was run?
A: > 10 µM

Q: How did the EC50 turn out when `CN1CCCn2c(-c3cc(F)c(F)cc3F)nc(C(=O)N3CCCCC3CN3CCOCC3)c2C1` (stereo not shown) [Compound 789, (8-methyl-3-(2,4,5-trifluorophenyl)-6,7,8,9-tetrahydro-5H-imidazo[1,5-a][1,4]diazepin-1-yl)(2-(morpholinomethyl)piperidin-1-yl)methanone] was run?
A: > 10 µM

Q: `CNC(=O)[C@@H]1CCN(C(=O)c2nc(-c3cc(Cl)c(F)cc3F)n3c2CN(C)CCC3)C1` [Compound 808, (R)-1-(3-(5-chloro-2,4-difluorophenyl)-8-methyl-6,7,8,9-tetrahydro-5H-imidazo[1,5-a][1,4]diazepine-1-carbonyl)-N-methylpyrrolidine-3-carboxamide] was tested. Which EC50 did it give?
A: > 10 µM

Q: Which EC50 does the source give for `CNC(=O)[C@H]1CCN(C(=O)c2nc(-c3cc(Cl)c(F)cc3F)n3c2CN(C)CCC3)C1` [Compound 809, (S)-1-(3-(5-chloro-2,4-difluorophenyl)-8-methyl-6,7,8,9-tetrahydro-5H-imidazo[1,5-a][1,4]diazepine-1-carbonyl)-N-methylpyrrolidine-3-carboxamide] here?
A: > 10 µM

Q: Which EC50 does the source give for `CN1CCCn2c(-c3cc(C(F)(F)F)ccc3F)nc(C(=O)N[C@H](C(=O)NCCF)C(C)(C)C)c2C1` [Compound 810, (S)-3-(2-fluoro-5-(trifluoromethyl)phenyl)-N-(1-(2-fluoroethylamino)-3,3-dimethyl-1-oxobutan-2-yl)-8-methyl-6,7,8,9-tetrahydro-5H-imidazo[1,5-a][1,4]diazepine-1-carboxamide] here?
A: > 10 µM

Q: How did the EC50 turn out when `CNC(=O)[C@@H](NC(=O)c1nc(-c2cc(F)c(F)cc2F)n2c1CN(C(C)=O)CCC2)C(C)(C)C` [Compound 818, (S)-8-acetyl-N-(3,3-dimethyl-1-(methylamino)-1-oxobutan-2-yl)-3-(2,4,5-trifluorophenyl)-6,7,8,9-tetrahydro-5H-imidazo[1,4]diazepine-1-carboxamide] was run?
A: > 10 µM

Q: `CN1CCCn2c(-c3cc(Cl)c(F)cc3F)nc(C(=O)N3CC(F)(F)C3)c2C1` [Compound 823, (3-(5-chloro-2,4-difluorophenyl)-8-methyl-6,7,8,9-tetrahydro-5H-imidazo[1,5-a][1,4]diazepin-1-yl)(3,3-difluoroazetidin-1-yl)methanone] was tested. Which EC50 did it give?
A: > 10 µM

Q: How did the EC50 turn out when `CN1CCCn2c(-c3cc(Cl)c(F)cc3F)nc(C(=O)N3CCC(F)(F)C3)c2C1` [Compound 824, (3-(5-chloro-2,4-difluorophenyl)-8-methyl-6,7,8,9-tetrahydro-5H-imidazo[1,5-a][1,4]diazepin-1-yl)(3,3-difluoropyrrolidin-1-yl)methanone] was run?
A: > 10 µM

Q: How did the EC50 turn out when `COC(=O)C1CN(C(=O)c2nc(-c3cc(Cl)c(F)cc3F)n3c2CN(C)CCC3)CCC1=O` (stereo not shown) [Compound 826, methyl 1-(3-(5-chloro-2,4-difluorophenyl)-8-methyl-6,7,8,9-tetrabydro-5H-imidazo[1,5-a][1,4]diazepine-1-carbonyl)-4-oxopiperidine-3-carboxylate] was run?
A: > 10 µM

Q: With `CN1CCCn2c(-c3cc(Cl)ccc3F)nc(C(=O)N[C@H](C(=O)N[C@H]3CCC[C@H]3O)C(C)(C)C)c2C1` [Compound 840, 3-(5-chloro-2-fluorophenyl)-N-((S)-1-((1S,2R)-2-hydroxycyclopentylamino)-3,3-dimethyl-1-oxobutan-2-yl)-8-methyl-6,7,8,9-tetrahydro-5H-imidazo[1,5-a][1,4]diazepine-1-carboxamide] as the molecule, how does the EC50 read?
A: > 10 µM

Q: With `CC1CN(C(=O)c2nc(-c3cc(F)c(F)cc3F)n3c2CN(C)CCC3)CC(C)O1` (stereo not shown) [Compound 854, (2,6-dimethylmorpholino)(8-methyl-3-(2,4,5-trifluorophenyl)-6,7,8,9-tetrahydro-5H-imidazo[1,5-a][1,4]diazepin-1-yl)methanone] as the molecule, how does the EC50 read?
A: > 10 µM

Q: How did the EC50 turn out when `CN1CCCn2c(-c3cc(F)c(F)cc3F)nc(C(=O)N3CC(O)C3)c2C1` [Compound 856, (3-hydroxyazetidin-1-yl)(8-methyl-3-(2,4,5-trifluorophenyl)-6,7,8,9-tetrahydro-5H-imidazo[1,5-a][1,4]diazepin-1-yl)methanone] was run?
A: > 10 µM
